Measurements from patent US8211470B2, “Method for preparing nano-scale or amorphous particle using solid fat as a solvent” (Bio-Synectics Inc., priority 2003, dated 2012).

Test: Particle size of the final powder dispersed in distilled water, particle size analyzer (Mastersizer Microplus)
Format: physicochemical
Experimental: Next, the pressure inside the collecting reactor containing the sprayed solid powders was elevated to about 150 atm by adding carbon dioxide gas into the collecting reactor. The pressure inside the collecting reactor was constantly maintained to the pressure of 100 atm or more by controlling a vent valve of the collecting reactor, while continuously adding the carbon dioxide gas. Under the constantly maintained pressure, the cetyl alcohol used as a solid fat was extracted for 8 hours with the gas of the supercritical fluid to obtain 1.8 g of fat-removed fine solid particles. The particle size of the obtained powdered mixture was determined by a particle size analyzer (Mastersizer Microplus) by dispersing the obtained powdered mixture into distilled water, and the result was shown in Table 1.
30 g of cetyl alcohol and 2 g of ketoconazole were placed into a 250 ml volume beaker and heated to 80° C. with stirring until the mixture became completely melt to form a transparent liquid. After completely melting the mixture, additional stirring for about 10 minutes was further carried out for homogeneous mixing. Then, the melted mixture was poured into a stainless steel plate which was precooled to 10° C. or less for rapid cooling and solidifying, thereby obtaining the solid product in which the active ingredient was dispersed uniformly into the fat in the form of fine particles. […]

With `CC(=O)N1CCN(c2ccc(OCC3COC(Cn4ccnc4)(c4ccc(Cl)cc4Cl)O3)cc2)CC1` (stereo not shown) [Raw material (Active ingredient), ketoconazole] the Average particle size was 10.41 μm.
